Laboratory results from patent US20040261961A1, “Wood treatment solution and process for improving the preservation of wood” (priority 2001, published 2004).
Read-outs that look alike come from different tables or passages of the source.

Tests used:
Coniophora puteana = test system: Coniophora puteana
Method: (§1) The tests were carried out by using test specimens made from spruce or pine wood. The size of specimens made of pine was approx. 20×15×2.4 cm^3 and respectively the size of the specimens made from spruce was approx. 20×12×7.2 cm^3. One half of the wood specimens were subjected to a heat treatment at 190° C. […] One half of the specimens were subjected to no heat treatment. The wood specimens were measured and weighed before the chemical treatment. Neither chemical nor heat treatment was carried out on the reference specimens that were used in the accelerated rotting tests described below.
(§2) The temperature of the solution was 40-50° C. In the vessel there prevailed a pressure of approx. 150 kPa (1.5 bar), by means of which the solution was “forced” into the wood. The treatment time was 2 h. After the chemical treatment the wood specimens were dried in an incubator overnight at 80-90° C.
(§3) In the next phase the specimens treated above were sent to a rot fungus test. European standard EN 113 was applied in carrying out the test. The wood was exposed to conditions as rigorous as possible with respect to decay: temperature was approx. 30° C. and humidity 100%, and bad rot fungi such as Poria placenta, Gloeophyllum trabeum and Coniophora puteana had been introduced into the testing space (culture flask). These fungi are present in all rotting objects. The test lasted for 4 months. […] The rotting of such wood should in an accelerated rotting test be such that the weight loss is at least 20% with each fungus species. The specimens were weighed before the beginning of the test.
(§4) The results of the accelerated rotting tests for spruce are shown in Tables 2-4 and for pine in Tables 5-7.

Gloeophyllum trabeum = test system: Gloeophyllum trabeum
Method: as §1, §2, §3, §4

Poria placenta = test system: Poria placenta
Method: as §1, §2, §3, §4

[1] = test system: Poria placenta, Gloeophyllum trabeum and Coniophora puteana; conditions: Ca formate treatment in addition to heat treatment
Method: as §3, §4

[2] = board kept several days in strong potassium formate solution; buried in garden plot from summer to following summer
Source text: A board specimen was kept for several days in a strong potassium formate solution. After impregnation, the board was in summer buried in a garden plot together with untreated board taken from the same board specimen.

rot fungi = conditions: closed and humid space containing rot fungi; potassium formate dissolved in water
Method: Next, a test was performed in which a piece of wood was impregnated with potassium formate. This and an untreated wood specimen were placed in a closed and humid space containing rot fungi.

SMILES: O=C[O-].O=C[O-].[Ca+2] [Ca formate, calcium formate]
- Rot resistance class according to standard EN 350-1994 (Coniophora puteana; treated pine): Class 1
- Rot resistance class according to standard EN 350-1994 (Coniophora puteana; treated spruce): Class 1
- Rot resistance class according to standard EN 350-1994 (Gloeophyllum trabeum; treated pine): Class 1
- Rot resistance class according to standard EN 350-1994 (Gloeophyllum trabeum; treated spruce): Class 1
- Rot resistance class according to standard EN 350-1994 (Poria placenta; treated pine): Class 3
- Rot resistance class according to standard EN 350-1994 (Poria placenta; treated spruce): Class 3
- Rotting of wood (overall conclusion) [1]: prevented almost completely

SMILES: O=C[O-].[K+] [potassium formate]
- Decay of impregnated board after burial [2]: without any decay
- Decay activity in the experimental space (rot fungi): inhibited all decay activity
